Assay results published in ChEMBL document CHEMBL1201862, “PubChem BioAssay data set” (2004).
The source made the active and inactive calls.

What was measured:
[1] = target: Peroxisome proliferator-activated receptor gamma/Nuclear receptor coactivator 1 (Homo sapiens, UniProt P37231); test: TR-FRET dose response biochemical High Throughput Screening assay for agonists of the steroid receptor coactivator 1 (SRC-1) recruitment by the peroxisome proliferator-activated receptor gamma (PPAR gamma): non-selective agonists. [Related pubchem assays (depositor defined):AID1300, AID1808, AID504735, AID631]; type: protein assay
[2] = target: Peroxisome proliferator-activated receptor gamma/Nuclear receptor coactivator 3 (Homo sapiens, UniProt P37231); test: TR-FRET dose response biochemical High Throughput Screening assay for agonists of the steroid receptor coactivator 3 (SRC-3) recruitment by the peroxisome proliferator-activated receptor gamma (PPAR gamma): non-selective agonists. [Related pubchem assays: 1301 (Confirmation screen.), 1048 (Primary screen.)]; type: functional
[3] = target: Peroxisome proliferator-activated receptor gamma/Nuclear receptor coactivator 2 (Homo sapiens, UniProt P37231); test: TR-FRET dose response biochemical High Throughput Screening assay for agonists of the steroid receptor coactivator 2 (SRC-2) recruitment by the peroxisome proliferator-activated receptor gamma (PPAR gamma): non-selective agonists. [Related pubchem assays: 1297, 1032 ]; type: functional
[4] = blockers of bursicon-stimulated LGR2 cAMP reporter – cell-based, HEK293, CRE-luciferase reporter, cherry pick, set 2, dose response (AID 743343); type: functional;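 note: transfected cells were stimulated with diluted bursicon conditioned medium after compound addition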
[5] = blockade of melanocortin 4 receptor signaling – cell-based, plate reader, cherry pick, counter-screen for LGR2 antagonist project, dose response (AID 743444); type: functional;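 note: transfected HEK 293 cells stimulated with alpha-MSH peptide; potency of inhibitors of the alpha-MSH evoked signal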
[6] = target: T1, Microphthalmia-associated transcription factor (Homo sapiens, UniProt O75030); test: reducers of TRPM1 reporter luminescence, concentration series – cell-based, SK-MEL-5, cherry-picked, set 3, MITF inhibitor project, dose response (AID 493073); type: functional;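 note: SK-MEL-5 melanoma cells with luciferase driven by the MITF target TRPM1 promoter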
T1 sequence (O75030 whole entry): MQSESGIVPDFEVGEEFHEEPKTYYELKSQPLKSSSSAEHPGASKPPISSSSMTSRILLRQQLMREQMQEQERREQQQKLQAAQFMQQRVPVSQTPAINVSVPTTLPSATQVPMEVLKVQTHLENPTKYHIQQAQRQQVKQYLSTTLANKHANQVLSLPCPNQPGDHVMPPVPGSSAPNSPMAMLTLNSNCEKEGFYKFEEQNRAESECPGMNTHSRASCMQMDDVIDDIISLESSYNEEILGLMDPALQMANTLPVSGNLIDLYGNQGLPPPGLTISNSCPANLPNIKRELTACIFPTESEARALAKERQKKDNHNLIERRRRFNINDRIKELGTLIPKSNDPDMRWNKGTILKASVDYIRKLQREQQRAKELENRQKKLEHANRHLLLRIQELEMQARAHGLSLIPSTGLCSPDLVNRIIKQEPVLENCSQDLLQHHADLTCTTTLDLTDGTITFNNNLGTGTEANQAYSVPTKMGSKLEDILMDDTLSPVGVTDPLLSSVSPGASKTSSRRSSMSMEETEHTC

[7] = A549 cell cytotoxicity, dose response, cytotoxicity control, plate reader, cherry-pick, antagonist series (AID 743412); type: functional, cell-based
[8] = toxicity toward HepG2 liver cells – cell-based, plate reader, cherry-pick, antagonist series, cytotoxicity control, dose response (AID 743416); type: functional
[9] = viability loss in HEK293 cells – cell-based, plate reader, cherry-picked samples, cytotoxicity control, dose response (AID 743446); type: functional
Kallikrein-7 = Kallikrein-7 (Homo sapiens, UniProt P49862); test: Fluorescence Intensity-based biochemical primary high throughput dose response assay to identify activators of kallikrein-7 (K7) zymogen.
Chain of Kallikrein-7 (P49862 whole entry): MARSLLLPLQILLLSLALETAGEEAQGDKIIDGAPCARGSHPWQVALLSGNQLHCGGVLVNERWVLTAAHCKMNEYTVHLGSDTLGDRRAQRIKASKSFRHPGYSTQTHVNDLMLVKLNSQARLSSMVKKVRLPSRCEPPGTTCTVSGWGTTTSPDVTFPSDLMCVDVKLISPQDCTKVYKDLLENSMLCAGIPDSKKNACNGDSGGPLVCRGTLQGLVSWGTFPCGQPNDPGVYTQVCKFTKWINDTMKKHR

Large T antigen = Large T antigen (Simian virus 40, UniProt P03070); type: functional, Betapolyomavirus macacae;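 note: Confirmatory-stage PubChem screen for compounds that inhibit SV40 T antigen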
Chain of Large T antigen (P03070 whole entry): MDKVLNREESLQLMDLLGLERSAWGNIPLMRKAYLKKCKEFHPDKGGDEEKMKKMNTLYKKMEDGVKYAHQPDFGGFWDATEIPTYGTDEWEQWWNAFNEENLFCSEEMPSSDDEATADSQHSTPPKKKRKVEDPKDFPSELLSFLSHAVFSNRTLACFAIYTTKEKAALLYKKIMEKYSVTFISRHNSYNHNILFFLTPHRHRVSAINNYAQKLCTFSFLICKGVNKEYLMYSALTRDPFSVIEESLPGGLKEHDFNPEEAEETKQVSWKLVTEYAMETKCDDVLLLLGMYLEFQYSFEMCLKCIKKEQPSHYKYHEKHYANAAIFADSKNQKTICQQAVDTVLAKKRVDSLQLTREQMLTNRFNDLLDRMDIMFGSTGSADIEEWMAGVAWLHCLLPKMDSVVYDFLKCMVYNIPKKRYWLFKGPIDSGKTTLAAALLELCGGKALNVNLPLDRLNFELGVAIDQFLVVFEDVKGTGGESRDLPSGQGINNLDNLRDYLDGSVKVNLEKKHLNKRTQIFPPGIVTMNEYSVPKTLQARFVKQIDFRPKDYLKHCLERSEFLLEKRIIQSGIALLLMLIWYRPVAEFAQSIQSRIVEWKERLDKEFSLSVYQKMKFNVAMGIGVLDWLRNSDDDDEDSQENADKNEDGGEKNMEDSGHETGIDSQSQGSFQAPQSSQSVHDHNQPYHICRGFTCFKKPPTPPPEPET

[10] = M. tuberculosis growth inhibition, HTS (AID 449762); type: functional
[11] = target: G-protein coupled receptor 183 (Homo sapiens, UniProt P32249); test: SAR confirmation of small molecule antagonists of the EBI2 receptor via a luminescent beta-arrestin assa.; type: functional
Chain of G-protein coupled receptor 183 (P32249 whole entry): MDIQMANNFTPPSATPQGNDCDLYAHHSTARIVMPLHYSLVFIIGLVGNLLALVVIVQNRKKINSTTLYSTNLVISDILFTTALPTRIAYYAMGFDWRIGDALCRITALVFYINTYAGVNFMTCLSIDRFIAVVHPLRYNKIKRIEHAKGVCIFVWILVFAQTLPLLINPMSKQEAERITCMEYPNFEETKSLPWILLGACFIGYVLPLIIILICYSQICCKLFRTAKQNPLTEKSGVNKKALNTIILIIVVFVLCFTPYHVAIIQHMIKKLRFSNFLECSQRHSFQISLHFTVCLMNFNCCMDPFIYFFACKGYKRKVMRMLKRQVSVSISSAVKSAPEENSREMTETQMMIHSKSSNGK

[12] = mouse embryonic fibroblast toxicity – cell-based, plate reader, dry powder, set 2, cytotoxicity control, dose response (AID 652280); type: functional; conditions: NIH3T3
[13] = T. cruzi growth inhibition in host cells, dose response, cell-based, plate reader, dry powder, set 2 (AID 652275); type: functional
[14] = target: T2, RNA-binding protein pos-1 (Caenorhabditis elegans, UniProt G5EF15); test: disruptors of C. elegans POS-1 RNA interaction – biochemical, fluorescence polarization, dose response (AID 1964);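 note: purified POS-1 fused to maltose binding protein made in E. coli; potency of compounds blocking POS-1 binding to fluorescent RNA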
T2 sequence (G5EF15 whole entry): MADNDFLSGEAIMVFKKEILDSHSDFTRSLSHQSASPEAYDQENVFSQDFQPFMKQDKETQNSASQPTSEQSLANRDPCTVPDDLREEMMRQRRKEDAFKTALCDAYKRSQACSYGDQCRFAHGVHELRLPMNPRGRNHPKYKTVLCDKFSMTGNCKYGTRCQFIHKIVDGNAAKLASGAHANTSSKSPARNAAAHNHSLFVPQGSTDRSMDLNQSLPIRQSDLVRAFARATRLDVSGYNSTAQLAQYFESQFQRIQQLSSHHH

[15] = target: T3, Zinc finger protein mex-5 (Caenorhabditis elegans, UniProt Q9XUB2); test: potency of MEX-5 RNA-binding blockers – biochemical, C. elegans, fluorescence polarization, dose response (AID 1960)
T3 sequence (Q9XUB2 whole entry): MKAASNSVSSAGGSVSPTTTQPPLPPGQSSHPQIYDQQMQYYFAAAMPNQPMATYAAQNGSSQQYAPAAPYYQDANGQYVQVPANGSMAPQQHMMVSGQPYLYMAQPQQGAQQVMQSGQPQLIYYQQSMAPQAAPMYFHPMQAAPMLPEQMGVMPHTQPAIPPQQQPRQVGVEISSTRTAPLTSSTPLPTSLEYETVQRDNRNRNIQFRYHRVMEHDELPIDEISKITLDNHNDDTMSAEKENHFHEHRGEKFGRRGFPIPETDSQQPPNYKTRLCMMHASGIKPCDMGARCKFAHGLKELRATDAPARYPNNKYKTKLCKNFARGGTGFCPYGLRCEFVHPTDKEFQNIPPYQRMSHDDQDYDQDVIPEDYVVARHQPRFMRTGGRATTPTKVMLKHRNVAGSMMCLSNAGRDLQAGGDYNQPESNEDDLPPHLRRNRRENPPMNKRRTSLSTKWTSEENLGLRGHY

Genome polyprotein = Genome polyprotein (dengue virus type 2, UniProt P29990); test: flavivirus cap methylation enzyme inhibition – biochemical, confirmation dose response, primary screen (AID 588689); type: functional
[16] = target: Ras and Rab interactor 1/Tyrosine-protein kinase ABL1 (Homo sapiens, UniProt P00519+Q13671); type: functional;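 note: biochemical TR-FRET dose-response test measuring inhibition of binding between Rin1 and Abl proteins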
Chain of Ras and Rab interactor 1/Tyrosine-protein kinase ABL1 (P00519 whole entry): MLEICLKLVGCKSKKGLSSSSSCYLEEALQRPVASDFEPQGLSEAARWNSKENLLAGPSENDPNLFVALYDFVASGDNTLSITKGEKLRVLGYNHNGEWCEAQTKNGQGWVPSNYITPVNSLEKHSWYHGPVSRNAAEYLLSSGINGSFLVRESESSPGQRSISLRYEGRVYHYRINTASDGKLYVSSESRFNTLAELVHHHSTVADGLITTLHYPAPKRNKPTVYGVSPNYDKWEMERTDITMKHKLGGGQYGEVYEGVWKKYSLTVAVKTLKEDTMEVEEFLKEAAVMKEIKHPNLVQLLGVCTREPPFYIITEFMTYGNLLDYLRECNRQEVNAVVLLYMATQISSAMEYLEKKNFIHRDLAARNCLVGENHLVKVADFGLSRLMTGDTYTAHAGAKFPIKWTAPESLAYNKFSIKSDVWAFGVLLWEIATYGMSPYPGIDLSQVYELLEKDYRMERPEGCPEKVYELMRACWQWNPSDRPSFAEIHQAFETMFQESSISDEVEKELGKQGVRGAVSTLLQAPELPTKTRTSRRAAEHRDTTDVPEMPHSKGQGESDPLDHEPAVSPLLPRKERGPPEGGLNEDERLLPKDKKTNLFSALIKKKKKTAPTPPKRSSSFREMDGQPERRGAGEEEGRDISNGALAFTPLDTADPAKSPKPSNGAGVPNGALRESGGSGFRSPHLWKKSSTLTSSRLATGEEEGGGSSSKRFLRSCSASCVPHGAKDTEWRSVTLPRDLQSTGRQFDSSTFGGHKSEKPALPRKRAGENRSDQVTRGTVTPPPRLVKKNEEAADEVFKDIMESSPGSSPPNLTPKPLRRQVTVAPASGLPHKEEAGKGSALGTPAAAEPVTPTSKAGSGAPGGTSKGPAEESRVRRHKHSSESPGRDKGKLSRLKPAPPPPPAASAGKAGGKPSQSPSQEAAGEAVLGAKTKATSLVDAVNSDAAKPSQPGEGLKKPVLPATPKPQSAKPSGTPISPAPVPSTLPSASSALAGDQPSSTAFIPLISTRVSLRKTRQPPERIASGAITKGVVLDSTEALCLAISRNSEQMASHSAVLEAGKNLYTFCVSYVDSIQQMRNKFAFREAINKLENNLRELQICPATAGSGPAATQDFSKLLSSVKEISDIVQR
Chain of Ras and Rab interactor 1/Tyrosine-protein kinase ABL1 (Q13671 whole entry): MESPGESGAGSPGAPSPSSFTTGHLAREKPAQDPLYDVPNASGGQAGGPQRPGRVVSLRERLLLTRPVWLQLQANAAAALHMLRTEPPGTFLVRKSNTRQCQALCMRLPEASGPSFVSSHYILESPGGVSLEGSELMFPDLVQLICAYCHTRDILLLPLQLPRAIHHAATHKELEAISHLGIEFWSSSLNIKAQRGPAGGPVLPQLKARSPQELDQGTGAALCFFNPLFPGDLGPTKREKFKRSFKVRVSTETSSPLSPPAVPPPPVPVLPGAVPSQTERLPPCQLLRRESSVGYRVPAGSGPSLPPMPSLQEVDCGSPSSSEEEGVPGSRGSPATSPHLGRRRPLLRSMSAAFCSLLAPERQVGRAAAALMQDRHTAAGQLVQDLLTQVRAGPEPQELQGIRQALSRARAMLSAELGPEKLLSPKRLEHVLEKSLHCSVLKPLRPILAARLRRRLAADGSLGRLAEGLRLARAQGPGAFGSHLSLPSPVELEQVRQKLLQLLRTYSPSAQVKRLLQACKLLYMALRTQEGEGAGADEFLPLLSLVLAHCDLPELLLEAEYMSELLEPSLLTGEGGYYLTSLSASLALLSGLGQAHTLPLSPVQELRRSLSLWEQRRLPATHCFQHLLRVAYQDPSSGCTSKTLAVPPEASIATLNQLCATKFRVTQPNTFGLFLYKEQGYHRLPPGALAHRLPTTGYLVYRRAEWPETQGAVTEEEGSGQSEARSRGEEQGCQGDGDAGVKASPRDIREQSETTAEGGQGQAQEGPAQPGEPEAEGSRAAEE

Caspase-6 = Caspase-6 (Homo sapiens, UniProt P55212); test: inhibition of CASP6 peptide cleavage – biochemical, VEID-R110 fluorescence, cherry-pick, dose response (AID 720632)
Chain of Caspase-6 (P55212 24-179 limits assumed): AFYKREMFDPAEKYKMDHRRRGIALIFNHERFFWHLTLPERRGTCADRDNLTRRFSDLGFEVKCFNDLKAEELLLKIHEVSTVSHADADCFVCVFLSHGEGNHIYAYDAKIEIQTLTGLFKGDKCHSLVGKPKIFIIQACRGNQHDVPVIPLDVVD
Chain of Caspase-6 (P55212 194-293 limits assumed): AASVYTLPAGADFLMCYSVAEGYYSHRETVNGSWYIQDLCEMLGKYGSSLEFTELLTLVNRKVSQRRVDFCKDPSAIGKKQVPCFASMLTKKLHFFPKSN

[17] = general mammalian cell viability loss – inhibitor set, cherry-pick, set 2, cytotoxicity control for miR-122 modulator project, dose response (AID 720697); type: functional, cell-based
[18] = general mammalian cell viability loss – activator set, cherry-pick, cytotoxicity control for miR-122 modulator project, dose response (AID 720690); type: functional, cell-based;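 note: HEK293T human cells scored for general mammalian cytotoxicity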
[19] = CTGF mRNA reduction in DLD1 cells – cell-based, DLD1 colon cancer, RT-qPCR, cherry-pick, dose response (AID 1053122); type: functional; conditions: Cancer cell lines
[20] = Luminescence Cell-Based Dose Retest to Confirm Inhibitors of Cancer Stem Cells. [Related pubchem assays (depositor defined):AID2717, AID2721]; type: functional; conditions: Homo sapiens
[21] = target: RNA-editing ligase 1, mitochondrial (Trypanosoma brucei brucei, UniProt P86926); test: inhibition of trypanosome RNA editing ligase – biochemical, fluorescence, Trypanosoma brucei, dose response (AID 1117295); type: functional
Chain of RNA-editing ligase 1, mitochondrial (P86926 whole entry): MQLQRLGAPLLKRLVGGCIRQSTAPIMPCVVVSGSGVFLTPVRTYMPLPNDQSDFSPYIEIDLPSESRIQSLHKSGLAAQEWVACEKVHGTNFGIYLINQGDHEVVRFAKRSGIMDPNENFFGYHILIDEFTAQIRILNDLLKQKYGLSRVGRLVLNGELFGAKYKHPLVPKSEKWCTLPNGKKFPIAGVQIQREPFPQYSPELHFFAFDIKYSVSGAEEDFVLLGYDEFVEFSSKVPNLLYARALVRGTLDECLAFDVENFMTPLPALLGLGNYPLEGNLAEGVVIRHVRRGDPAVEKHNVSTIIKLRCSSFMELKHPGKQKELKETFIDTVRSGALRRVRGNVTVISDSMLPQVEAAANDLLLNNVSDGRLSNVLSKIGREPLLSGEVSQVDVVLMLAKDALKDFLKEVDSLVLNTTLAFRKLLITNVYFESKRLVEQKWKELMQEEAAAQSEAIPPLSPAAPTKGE

[22] = target: Bifunctional protein GlmU (Mycobacterium tuberculosis, UniProt P9WMN3); test: Inhibitors of Mycobacterial Glucosamine-1-phosphate acetyl transferase (GlmU). Secondary screen.; set-up: species or system Mycobacterium tuberculosis H37Rv
[23] = target: Induced myeloid leukemia cell differentiation protein Mcl-1 (Homo sapiens, UniProt Q07820); type: functional
[24] = target: Eukaryotic translation initiation factor 4E (Mus musculus, UniProt P63073); test: blockers of eIF4G binding by eIF4E – biochemical, TR-FRET, dose response (AID 855); type: functional;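 note: potency for disrupting eIF4E binding to eIF4GI seen as loss of FRET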
Chain of Eukaryotic translation initiation factor 4E (P63073 whole entry): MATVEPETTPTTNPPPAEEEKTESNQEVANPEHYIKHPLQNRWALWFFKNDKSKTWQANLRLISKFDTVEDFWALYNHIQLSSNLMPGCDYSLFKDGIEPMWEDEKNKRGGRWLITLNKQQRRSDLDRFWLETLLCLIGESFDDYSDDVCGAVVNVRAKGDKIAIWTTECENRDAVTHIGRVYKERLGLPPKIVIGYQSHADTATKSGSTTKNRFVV

[25] = target: T4, Heat shock factor protein 1 (Mus musculus, UniProt P38532); test: decrease of HSF1-responsive luciferase luminescence – cell-based, NIH3T3, dose retest, confirmation (AID 2382); type: functional;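 note: NIH3T3 fibroblasts with HSF1-driven luciferase reporter stressed by proteasome inhibitor MG132; luminescence from HSF1-driven luciferase expression after 8 hours of MG132 stress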
T4 sequence (P38532 whole entry): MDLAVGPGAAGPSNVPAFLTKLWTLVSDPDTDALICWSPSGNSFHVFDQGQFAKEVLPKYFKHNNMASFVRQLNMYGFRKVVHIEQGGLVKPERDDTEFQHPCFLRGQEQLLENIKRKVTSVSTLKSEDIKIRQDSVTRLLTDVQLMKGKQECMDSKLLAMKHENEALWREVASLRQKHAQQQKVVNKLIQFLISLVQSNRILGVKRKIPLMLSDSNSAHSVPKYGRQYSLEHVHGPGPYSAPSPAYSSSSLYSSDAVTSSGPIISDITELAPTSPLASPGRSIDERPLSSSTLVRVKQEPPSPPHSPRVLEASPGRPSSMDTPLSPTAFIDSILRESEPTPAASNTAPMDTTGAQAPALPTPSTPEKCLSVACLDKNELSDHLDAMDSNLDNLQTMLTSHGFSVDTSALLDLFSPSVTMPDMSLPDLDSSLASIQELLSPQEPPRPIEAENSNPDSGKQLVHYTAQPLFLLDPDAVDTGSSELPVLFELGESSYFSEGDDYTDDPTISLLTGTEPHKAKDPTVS

[26] = Trypanosoma cruzi growth suppression in host cells – NIH3T3 host cells, beta-gal luminescence, confirmation (AID 2044); type: functional, cell-based;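 note: intracellular parasites grown in NIH/3T3 mouse fibroblasts as host cells; luminescent beta-galactosidase reporter signal from transgenic T. cruzi replicating inside host cells; inhibitors lower the luminescence signal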
[27] = NIH3T3 cell viability loss – ATP luminescence, mouse fibroblasts, counter-screen, dose response (AID 2010); type: functional, cell-based;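 note: cells exposed to compound for about 90 hours before reading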
[28] = target: Mitogen-activated protein kinase 10 (Homo sapiens, UniProt P53779); test: Dose response biochemical screening assay for inhibitors of c-Jun N-Terminal Kinase 3 (JNK3). [Related pubchem assays: 746 ]
Chain of Mitogen-activated protein kinase 10 (P53779 whole entry): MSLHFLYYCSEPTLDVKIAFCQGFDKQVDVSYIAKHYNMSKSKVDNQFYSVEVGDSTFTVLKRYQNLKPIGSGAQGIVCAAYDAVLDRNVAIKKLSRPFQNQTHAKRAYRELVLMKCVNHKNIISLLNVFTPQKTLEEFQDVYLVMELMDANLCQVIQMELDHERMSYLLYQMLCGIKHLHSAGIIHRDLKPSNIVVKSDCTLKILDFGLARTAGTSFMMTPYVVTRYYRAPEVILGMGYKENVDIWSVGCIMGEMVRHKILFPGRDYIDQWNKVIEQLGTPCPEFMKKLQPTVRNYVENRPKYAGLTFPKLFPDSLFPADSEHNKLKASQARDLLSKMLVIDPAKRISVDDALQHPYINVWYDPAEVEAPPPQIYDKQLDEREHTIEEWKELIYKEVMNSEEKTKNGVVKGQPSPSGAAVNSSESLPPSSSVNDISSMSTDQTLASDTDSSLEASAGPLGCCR

Cytochrome P450 2C9 = Cytochrome P450 2C9 (Homo sapiens, UniProt P11712)
[29] = target: Endoplasmic reticulum aminopeptidase 1 (Homo sapiens, UniProt Q9NZ08); test: inhibition of human ERAP1 enzyme activity – biochemical, cherry-pick, set 2, plate reader, dose response (AID 743314)

Cc1ccccc1C(=O)Nc1nnc(-c2ccco2)s1
EC50 [1]: > 79.4 µM (inactive)
EC50 [2]: > 79.4 µM (not active)
EC50 [3]: > 26.5 µM (not active)
AC50 [4]: 4.84 µM (active)
AC50 [5]: 8.18 µM (active)

O=C(Cn1ncc(Cl)c(Cl)c1=O)N1CCOCC1
AC50 [6]: 9.82 µM (active)
AC50 [7]: 38 µM (active)
AC50 [8]: 34.4 µM (active)
AC50 [9]: 13.7 µM (active)

Cc1ccccc1NC(=O)COC(=O)COc1ccc2ccc(=O)oc2c1
EC50 (Kallikrein-7): 31.9 µM (inactive)

Nc1ccc2c(c1)Cc1ccccc1-2
IC50 (Large T antigen): 3.52 µM (active)
IC50 [10]: > 100 µM (active)

O=C(/C=C/c1ccc(F)cc1)N1CCN(S(=O)(=O)c2cccc(Br)c2)CC1
IC50 [11]: 0.0175 µM (active)

OC[C@H]1[C@H](c2ccc(-c3cccc(F)c3)cc2)[C@@H]2CN(CCC(F)(F)F)CCCCN12
AC50 [12]: 3.34 µM (active)
AC50 [13]: 0.53 µM (active)

Oc1ccc(/C=N/N2CCCCC2)c(O)c1O
EC50 [14]: 20.3 µM (active)
EC50 [15]: > 300 µM (inconclusive)
IC50 (Genome polyprotein): > 100 µM (active)
IC50 [16]: > 73.5 µM (inactive)
AC50 (Caspase-6): 24.2 µM (active)

C[C@@H]1CN([C@@H](C)CO)C(=O)Cc2cc(NS(=O)(=O)c3ccc(Cl)cc3)ccc2O[C@H]1CN(C)Cc1ccc(C(F)(F)F)cc1
AC50 [17]: < 0.195 µM (active)
AC50 [18]: 33.8 µM (active)

Cc1nnc(N/N=C/c2cccc(C(F)(F)F)c2)n1N
AC50 (Caspase-6): 34.8 µM (active)

C[C@@H]1CN([C@H](C)CO)C(=O)c2ccccc2-c2ccccc2CO[C@@H]1CN(C)Cc1cccc2c1OCCCO2
AC50 [19]: 12.3 µM (active)

CCCCCCSc1nsc(NC(=O)CC(C)C)n1
IC50 [10]: > 100 µM (active)
AC50 [20]: 2.02 µM (active)

N#Cc1ccc(C(=O)N2CCN(C(=O)/C=C/c3ccc(Br)cc3)CC2)cc1
IC50 [11]: 0.00174 µM (active)

COc1cccc(C#Cc2ccc([C@@H]3[C@@H](CO)N(C(=O)C4CCC4)[C@H]3C#N)cc2)c1
AC50 [7]: 30.9 µM (active)
AC50 [8]: 26.8 µM (active)
AC50 [9]: 46.8 µM (active)

CC(C)C[C@H](NC1(C(=O)NC2CCCCC2)CCN(C)CC1)C(=O)NCC(c1ccccc1)c1ccccc1
IC50 [21]: > 96.6 µM (inactive)

COc1ccc2oc(-c3ccccc3)cc(=O)c2c1 [6-METHOXYFLAVONE]
AC50 [7]: > 52 µM (inactive)
AC50 [8]: > 52 µM (inactive)
AC50 [4]: 5.46 µM (active)
AC50 [5]: 6.5 µM (active)

O=C1C(=Cc2ccc(Br)o2)C(=O)c2ccccc21
IC50 (Large T antigen): 93.7 µM (active)
IC50 [22]: 18.5 µM (active)
IC50 [23]: 1.92 µM (active)
IC50 [24]: 20.1 µM (active)

N#Cc1c(N)nc(SCc2ccncc2)c(C#N)c1-c1cccs1
EC50 [14]: > 300 µM (not active)
EC50 [15]: > 300 µM (not active)
EC50 [25]: > 195 µM (not active)
EC50 [26]: 0.145 µM (active)
EC50 [27]: 17.1 µM (active)
IC50 [28]: 54.8 µM (not active)

Nc1nc(-c2ccccc2)cc(-c2ccccc2O)n1
IC50 [28]: 40.6 µM (not active)
AC50 (Cytochrome P450 2C9): 3.55 µM (inconclusive)

O=C(O)CCC(=O)NN1C(=O)c2ccccc2NC1c1ccco1 (stereo not given)
EC50 (Kallikrein-7): > 69.5 µM (inactive)

COC(=O)C1=C(C)N(Cc2ccccc2C(F)(F)F)C(NCc2ccc3c(c2)OCO3)=NC1c1ccccc1 (stereo not given)
IC50 [21]: > 96.6 µM (inactive)

O=C(NCc1ccccn1)[C@@H]1[C@@H](CO)[C@@H]2Cn3c(ccc(/C=C/c4ccccc4)c3=O)[C@H]1N2CC1CC1
AC50 [29]: 7.58 µM (active)
